Results taken from patent publication US11884636B2, “Gonadotropin releasing hormone receptor antagonist and use thereof” (SHIJIAZHUANG YILING PHARMACEUTICAL CO., LTD., priority 2020, dated 2024).
Entries after “also recorded” stand apart in the source; their conditions may differ. Like-named read-outs stand apart in the source and are kept apart here.

Key:
[1] = tested on: serum luteinizing hormone (LH); assay: Pharmacodynamic assay in male emasculated cynomolgus monkeys (serum LH); assay type: in vivo
Description: Three male cynomolgus monkeys (purchased from Guangxi GuiDong Quadrumana Development & Laboratory Co., Ltd.), 3 to 5 years old (weight 3.8 to 4.0 kg), were fasted overnight and underwent bilateral orchiectomy under anesthesia. Serum luteinizing hormone (LH) was measured in the cynomolgus monkeys from 3 to 7 weeks after emasculation using radioimmunoassay.
After successful emasculation surgical modeling, G201 and Elagolix Sodium (dissolvent: 0.5% CMC-Na) were given in 2 administration cycles by single oral gavage at doses of 10 mg/kg and 30 mg/kg, respectively, both in a volume of 10 mL/kg. Each administration cycle was separated by an elution period of approximately 2 weeks. For each cycle of administration, blood was collected before and 0.25, 0.5, 1, 2, 3, 6, 8 and 24 h after administration, respectively, and serum was separated for gonadal hormone LH assay.

[2] = Mouse pharmacokinetic assay; assay type: in vivo; conditions: ICR mice
Description: 10 female ICR mice, divided into two groups of five per group, were administrated G201 intravenously and by oral gavage, respectively, at a dose of 10 mg/kg. Blood was collected from the retro-orbital venous plexus 0.083, 0.25, 0.5, 1, 2, 4, 6, 8 h after administration, and the volume of blood collected was approximately 0.1 mL. A blood sample was centrifuged at 4000 rpm for 10 min within 1 h. The upper layer of plasma was separated and stored in a refrigerator at minus 80° C. within 1 h to be measured. The subject animals were fasted for at least 12 h before blood collection and were not water fasted. Food and water were fasted during blood collection and free 2 h after administration. The plasma concentration of G201 in the ICR mice was measured by an LC-MS/MS method, and main pharmacokinetic parameters were calculated by applying DAS 3.2.7 pharmacokinetic software and include AUC0-4, AUC0-∞, Cmax, t1/2, etc.

[3] = target: T1, recombinant human gonadotropin-releasing hormone receptor (GnRHR) (Homo sapiens, UniProt P30968); assay: FLIPR calcium flux assay in CHO-K1/GNRHR/Gα15 cells; assay type: cell-based; conditions: Buserelin EC80 agonist, read-out: EC50, inhibition of intracellular calcium release
T1 construct: expressed in transfected cells
T1 sequence (P30968 1-328): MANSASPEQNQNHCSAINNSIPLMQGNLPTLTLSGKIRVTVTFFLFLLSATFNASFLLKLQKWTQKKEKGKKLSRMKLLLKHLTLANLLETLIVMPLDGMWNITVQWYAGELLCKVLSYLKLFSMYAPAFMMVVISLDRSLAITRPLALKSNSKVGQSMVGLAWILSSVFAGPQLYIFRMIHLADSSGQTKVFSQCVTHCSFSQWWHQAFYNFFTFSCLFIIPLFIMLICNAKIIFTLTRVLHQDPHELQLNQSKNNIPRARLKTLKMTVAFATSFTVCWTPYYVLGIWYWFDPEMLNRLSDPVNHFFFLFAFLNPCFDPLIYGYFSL
Description: Intracellular calcium changes of cell line CHO-K1/GNRHR/Gα15 that is stable of a recombinant human gonadotropin-releasing hormone receptor (GnRHR) were measured using an FLIPR calcium flux assay kit (Calcium 4 assay kit). GnRHR is a G protein-coupled receptor (GPCRs), and a GPCRs signal enabled intracellular calcium release through a Gq pathway. Therefore, functional changes of GnRHR, which carried out signal transduction through the Gq pathway, can be detected by detecting intracellular calcium release with a calcium-sensitive fluorescent probe. The assay steps were as follows: • 1. Cells were seeded in 384-well plates (Corning, Cat #:3764) at a density of 10,000 cells/well with an F12+10% FBS medium (20 μl/well) and cultured overnight (18 h). • 2. A dye working solution was prepared from a probenecid stock solution (500 mM) and a Calcium 4 stock solution mixed at 1:100. A sample to be tested G201 and Elagolix (2 mM in DMSO) was diluted with an assay buffer, specifically, 5 μl of 2 mM stock solution was taken and diluted to 200 μl (50 μM) to obtain a 5× sample working solution of a first concentration. 20 μl of the 5× sample working solution was taken and diluted to 200 μl, and after even mixing, a sample working solution of a second concentration was obtained. A total of eight gradient dilutions of sample working solutions were prepared respectively. […]

[4] = Rat pharmacokinetic assay; assay type: in vivo; conditions: SD rats; for F (absolute bioavailability) / bioavailability: oral gavage 50 mg/kg vs intravenous 25 mg/kg; for bioavailability / AUC(0-inf) / Cmax / Tmax / AUC(0-t) / clearance / Vd: female, rat, plasma; for bioavailability: SD, oral, 50 mg/kg, read-out: F (absolute bioavailability); for AUC(0-t): read-out: AUC0-24 h; for clearance: read-out: CLz (clearance rate) (converted); for Vd: read-out: Vz (apparent volume of distribution)
Description: 12 female SD rats, divided into four groups of three per group, were administrated G201 (dissolved in saline containing 5% N,N-dimethylacetamide and 5% cremophor ELL) and Elagolix Sodium (dissolved directly in saline) intravenously and by gavage at doses of 25 mg/kg and 50 mg/kg, respectively. Food was fasted overnight before administration and resumed 4 h after administration, with free access to water throughout the assay period. Blood was collected from the retro-orbital venous plexus before and 5, 15, 30 min, 1, 2, 4, 6, 8, 24 h after administration, and the volume of blood collected was approximately 0.2 mL. A whole blood sample centrifuged at 4000 rpm for 10 min within 1 h from collection. The upper layer of plasma was separated and stored in a refrigerator at minus 20° C. within 1 h until analysis. After the plasma sample were precipitated by methanolic protein at 1:8, G201 and Elagolix plasma concentrations were measured by an LC-MS/MS method, and main pharmacokinetic parameters were calculated by applying DAS3.2.7 software.

[5] = monkeys; cited from earlier work
[6] = rats, oral radiolabeled Elagolix; cited from earlier work
[7] = rats; cited from earlier work
[8] = mice, dose of 10 mg/kg; cited from earlier work
[9] = human bodies; cited from earlier work
[10] = female, mouse, plasma, intravenous injection 10 mg/kg
[11] = female, mouse, plasma, oral administration 10 mg/kg

| t1/2z ([4]; intravenous injection 25 mg/kg) | t1/2z ([4]; oral gavage 50 mg/kg) | F (absolute bioavailability) [4] | bioavailability [4] | AUC(0-inf) ([4]; intravenous injection 25 mg/kg) | Cmax ([4]; intravenous injection 25 mg/kg) | Tmax ([4]; intravenous injection 25 mg/kg) | AUC(0-t) ([4]; intravenous injection 25 mg/kg) | clearance ([4]; intravenous injection 25 mg/kg) | Vd ([4]; intravenous injection 25 mg/kg) | AUC(0-inf) ([4]; oral gavage 50 mg/kg) | Cmax ([4]; oral gavage 50 mg/kg) | Tmax ([4]; oral gavage 50 mg/kg) | AUC(0-t) ([4]; oral gavage 50 mg/kg) | Structure (SMILES) | other results |
| --- | --- | --- | --- | --- | --- | --- | --- | --- | --- | --- | --- | --- | --- | --- | --- |
| 47.4 min | 282 min | 51.9% | 51.9% | 15700 ng·h/mL | 27200 ng/mL | 4.8 min | 15700 ng·h/mL | 27 mL/min/kg | 1.82 L/kg | 16400 ng·h/mL | 17000 ng/mL | 25.2 min | 16300 ng·h/mL | COc1cccc(-c2c(C)n(Cc3c(F)cccc3C(F)(F)F)c(=O)n(C[C@H](NCCCC(=O)O)c3ccccc3F)c2=O)c1F [Compound G201] | general condition, weight and abnormalities during the assay period ([1]; single oral gavage 10 mg/kg): no subject-related abnormalities were observed; serum LH change after administration ([1]; single oral gavage 10 mg/kg): decreased significantly; time of serum LH minimum after administration ([1]; single oral gavage 10 mg/kg): 3 h; serum LH inhibitory effect compared with 30 mg/kg Elagolix Sodium ([1]; single oral gavage 10 mg/kg G201): slightly higher magnitude of change; also recorded: comparable or superior; CLz ([2]; intravenous injection 10 mg/kg): 53 mL/min/kg; t1/2z ([2]; intravenous injection 10 mg/kg): 15.6 min; t1/2z ([2]; oral administration 10 mg/kg): 25.8 min; AUC(0-inf) [2, 10]: 3250 ng·h/mL; AUC(0-t) [2, 10]: 3240 ng·h/mL; Vd ([2]; female, mouse, plasma, intravenous injection 10 mg/kg, read-out: Vz): 1.17 L/kg; AUC(0-inf) [2, 11]: 1270 ng·h/mL; AUC(0-t) [2, 11]: 1010 ng·h/mL; Cmax [2, 11]: 2000 ng/mL; Tmax [2, 11]: 16.2 min; bioavailability ([2]; female, mouse, plasma, oral administration 10 mg/kg vs intravenous 10 mg/kg, read-out: F (absolute bioavailability)): 38.9%; IC50 [3]: 37.6 nM; oral AUC0-∞ relative to that of Elagolix Sodium ([4]; oral gavage 50 mg/kg): three times |
| 130 min | 272 min | 23.7% | 23.6% | 10200 ng·h/mL | 15600 ng/mL | 4.8 min | 10200 ng·h/mL | 41.3 mL/min/kg | 8.46 L/kg | 4870 ng·h/mL | 4660 ng/mL | 25.2 min | 4830 ng·h/mL | COc1cccc(-c2c(C)n(Cc3c(F)cccc3C(F)(F)F)c(=O)n(C[C@H](NCCCC(=O)[O-])c3ccccc3)c2=O)c1F.[Na+] [Elagolix Sodium, Sodium R-(+)-4-{2-[5-(2-Fluoro-3-methoxyphenyl)-3-(2-fluoro-6-[trifluoromethyl]-benzyl)-4-methyl-2,6-dioxo-3,6-dihydro-2H-pyrimidin-1-yl]-1-phenylethylamino}butyrate, reference compound] | general condition, weight and abnormalities during the assay period ([1]; single oral gavage 30 mg/kg): no subject-related abnormalities were observed; serum LH change after administration ([1]; single oral gavage 30 mg/kg): decreased significantly; time at which serum LH returned to the pre-administration level ([1]; single oral gavage 30 mg/kg): 24 h; time of serum LH minimum after administration ([1]; single oral gavage 30 mg/kg): 3 h |
| – | – | – | – | – | – | – | – | – | – | – | – | – | – | COc1cccc(-c2c(C)n(Cc3c(F)cccc3C(F)(F)F)c(=O)n(C[C@H](NCCCC(=O)[O-])c3ccccc3)c2=O)c1F.[Na+] [Elagolix, Sodium R-(+)-4-{2-[5-(2-Fluoro-3-methoxyphenyl)-3-(2-fluoro-6-[trifluoromethyl]-benzyl)-4-methyl-2,6-dioxo-3,6-dihydro-2H-pyrimidin-1-yl]-1-phenylethylamino}butyrate] | absolute oral bioavailability [5]: 11%; total radioactivity excreted through the bile [6]: ~50%; absolute oral bioavailability [7]: 5.8%; absolute bioavailability [8]: 10%; apparent volume of distribution [9]: 1674 L |
